“Also recorded” adds a separate entry of the source.
Target: T1, TNFα trimer / TNFR1 (Homo sapiens, UniProt P01375)
T1 construct: human TNFα residues V77-L233 followed by two additional repeats; human TNFα residues D86-L233 linked together by Ser-Gly-Ser
Assay: Analytical size exclusion chromatography of TNFα/TNFR1/compound complexes, protocol 2
Format: binding
Conditions: compound 200 μM (1:10 trimers:compound); 3.5 fold excess of receptors
Experimental: Size exclusion chromatography was used to determine the number of TNFR1 receptors bound to TNFα in the absence or presence of different compounds. Compound (2) was tested under the conditions described in protocol 1 below. Compound (5) was tested as described in protocol 2.
Compound (5) was added to 20 μM of TNFα trimer at a final concentration of 200 μM (ratio of 1:10 trimers:compound) with DMSO concentration held constant at 2.0%. The sample of TNFα and compound were incubated overnight at a temperature of 4° C. Receptors at a final concentration of 35 μM were added to 10 μM trimer-compound complex (3.5 fold excess of receptors over the trimer-compound complex). The final concentration of DMSO was 1.0%. The mixture was incubated for 1 hour at 22° C.
The conditions for analytical size exclusion using HPLC were as follows: injection volume: 50 μl; Superdex 200HR 10/300, L×I.D. 30 cm×10 mm column, 13-15 μm particle size; and a buffer of 10 mM HEPES, pH 7.5, 150 mM NaCl.
The TNFα was a single polypeptide chain of trimeric human TNFα composed of human TNFα residues V77-L233 followed by two additional repeats of human TNFα residues D86-L233 linked together by Ser-Gly-Ser (sequences are based on UniProt […]). Human TNFR1 was (V43-N184)(N54D, C182S) based on sequence UniProt P19438. […]

T1 sequence (P01375 with tags, fused parts or gaps): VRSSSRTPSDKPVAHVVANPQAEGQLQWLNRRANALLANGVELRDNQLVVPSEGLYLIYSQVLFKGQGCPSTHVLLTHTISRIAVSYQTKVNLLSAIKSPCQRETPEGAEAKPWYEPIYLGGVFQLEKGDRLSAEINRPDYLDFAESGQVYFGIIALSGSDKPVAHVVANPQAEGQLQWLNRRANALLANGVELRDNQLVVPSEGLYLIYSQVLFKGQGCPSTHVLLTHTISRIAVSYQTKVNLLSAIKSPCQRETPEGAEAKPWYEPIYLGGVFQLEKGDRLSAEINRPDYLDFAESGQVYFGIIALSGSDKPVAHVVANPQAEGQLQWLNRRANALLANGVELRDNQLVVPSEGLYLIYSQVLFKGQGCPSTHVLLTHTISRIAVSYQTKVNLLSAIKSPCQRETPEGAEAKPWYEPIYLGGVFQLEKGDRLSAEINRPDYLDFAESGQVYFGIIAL

## Cc1nc2cc(F)c(-c3cnc(N4CC(O)(C(F)(F)F)C4)nc3)cn2c1[C@@H](O)c1ccccc1OC(F)F (single isomer, unassigned) [compound (5)]
  number of receptors binding per trimer (SEC peak position vs mutant TNFα controls): a mixture of two receptors and one receptor; also recorded: moved closer to 1 receptor bound

Source: patent US10883996B2, “Methods of identifying signaling modulators of the trimeric TNFa” (UCB BIOPHARMA SRL, priority 2015, dated 2021)
